Converted amounts (≈) assume the structure as drawn. The source made the active and inactive calls. The rule behind the calls is not given here.
Assays:
Erythrocyte = assay: Hemolytic activity in human RBC assessed as hemolysis incubated for 2 hrs by spectrophotometer analysis; type: toxicity, cell-based; settings: erythrocyte, 2 h
Staphylococcus aureus [1] = assay: Antibacterial activity against methicillin resistant Staphylococcus aureus ATCC BAA-1556 incubated for 24 hrs by microtiter plate method; type: functional
Pseudomonas aeruginosa = assay: Antibacterial activity against Pseudomonas aeruginosa ATCC 27883 incubated for 24 hrs by microtiter plate method; type: functional; settings: 24 h
Escherichia coli [2] = assay: Antibacterial activity against Escherichia coli ATCC 25922 incubated for 24 hrs by microtiter plate method; type: functional; settings: 24 h
Staphylococcus aureus [3] = assay: Antibacterial activity against Staphylococcus aureus ATCC 29213 incubated for 24 hrs by microtiter plate method; type: functional
Staphylococcus aureus [4] = assay: Bactericidal activity against methicillin resistant Staphylococcus aureus ATCC BAA-1556 assessed as time required for complete reduction of bacterial growth at MIC by counting formed colonies; type: functional
Streptococcus pneumoniae [5] = assay: Antibacterial activity against multidrug resistant […] ATCC 700677 incubated for 24 hrs by microtiter plate method; type: functional
Staphylococcus aureus [6] = assay: Antibacterial activity against methicillin resistant Staphylococcus aureus ATCC BAA-1556 after 24 hrs in presence of fetal bovine serum by microtiter plate method; type: functional
Streptococcus pneumoniae [7] = assay: Antibacterial activity against […] ATCC 49619 incubated for 24 hrs by microtiter plate method; type: functional
Enterococcus faecalis [8] = assay: Antibacterial activity against vancomycin-resistant Enterococcus faecalis ATCC 51575 incubated for 24 hrs by microtiter plate method; type: functional
Enterococcus faecium [9] = assay: Antibacterial activity against vancomycin-resistant Enterococcus faecium ATCC 700221 incubated for 24 hrs by microtiter plate method; type: functional
Escherichia coli [10] = assay: Bactericidal activity against Escherichia coli ATCC BAA-2452 assessed as reduction of bacterial growth at MIC by counting formed colonies; type: functional, organism-based; settings: time <= 4.0 hrs, TDE = time-dependent effect
Staphylococcus aureus [11] = assay: Bactericidal activity against methicillin resistant Staphylococcus aureus ATCC BAA-1556 assessed as reduction of bacterial growth at MIC by counting formed colonies; type: functional, organism-based; settings: time <= 4.0 hrs, TDE = time-dependent effect
Lipid bilayer [12] = assay: Membrano-lytic effect in bacterial inner membrane mimic DOPC/DOPG (7:3) large unilamellar vesicles assessed as calcein leakage measured at 50 microg/ml, incubated for 100 mins by multimode microplate reader assay; type: cell membranes; settings: dose 50.0 µg/ml
Staphylococcus aureus [13] = assay: Antibacterial activity against methicillin resistant Staphylococcus aureus ATCC BAA-1556 incubated for 24 hrs; type: functional
Enterococcus faecium [14] = assay: Antibacterial activity against Enterococcus faecium ATCC 27270 incubated for 24 hrs by microtiter plate method; type: functional
Staphylococcus aureus [15] = assay: Antibacterial activity against methicillin resistant Staphylococcus aureus ATCC BAA-1556 after 24 hrs in presence of 4.5 mM of KCl by microtiter plate method; type: functional
Staphylococcus aureus [16] = assay: Antibacterial activity against methicillin resistant Staphylococcus aureus ATCC BAA-1556 after 24 hrs in presence of 6 mM of NH4Cl by microtiter plate method; type: functional
Lipid bilayer [17] = assay: Membrano-lytic effect in bacterial inner membrane mimic DOPC/DOPG (7:3) large unilamellar vesicles assessed as calcein leakage measured upto 100 mins for every 10 mins by multimode microplate reader assay; type: cell membranes; settings: dose 5-50 µg/ml, DDE = dose-dependent effect
Bacillus subtilis = assay: Antibacterial activity against Bacillus subtilis ATCC 6633 incubated for 24 hrs by microtiter plate method; type: functional
Staphylococcus aureus [18] = assay: Bactericidal activity against methicillin resistant Staphylococcus aureus ATCC BAA-1556 assessed as time required for complete reduction of bacterial growth at 4 times MIC by counting formed colonies; type: functional
Bacillus cereus = assay: Antibacterial activity against Bacillus cereus ATCC 13061 incubated for 24 hrs by microtiter plate method; type: functional
Staphylococcus aureus [19] = assay: Antibacterial activity against methicillin resistant Staphylococcus aureus ATCC BAA-1556 after 24 hrs in presence of 2 mM of CaCl2 by microtiter plate method; type: functional
Staphylococcus aureus [20] = assay: Bactericidal activity against methicillin resistant Staphylococcus aureus ATCC BAA-1556 assessed as reduction of bacterial growth at 4 times MIC by counting formed colonies; type: functional, organism-based; settings: time <= 4.0 hrs, TDE = time-dependent effect
Enterococcus faecalis [21] = assay: Antibacterial activity against Enterococcus faecalis ATCC 29212 incubated for 24 hrs by microtiter plate method; type: functional
Staphylococcus aureus [22] = assay: Antibacterial activity against methicillin resistant Staphylococcus aureus ATCC BAA-1556 after 24 hrs in presence of 1 mM of by microtiter plate method; type: functional
Staphylococcus aureus [23] = assay: Antibacterial activity against methicillin resistant Staphylococcus aureus ATCC BAA-1556 after 24 hrs in presence of 150 mM of NaCl by microtiter plate method; type: functional
Escherichia coli [24] = assay: Bactericidal activity against Escherichia coli ATCC BAA-2452 assessed as reduction of bacterial growth at 4 times MIC by counting formed colonies; type: functional, organism-based; settings: time <= 4.0 hrs, TDE = time-dependent effect
Lipid bilayer [25] = assay: Membrano-lytic effect in mammalian membrane mimic DOPC/cholesterol (10:1) large unilamellar vesicles assessed as calcein leakage measured at 50 microg/ml measured upto 100 mins for every 10 mins by multimode microplate reader assay; type: cell membranes; settings: dose 50.0 µg/ml

## N=C(N)NCCC[C@@H]1NC(=O)[C@H](CCCNC(=N)N)NC(=O)[C@H](C(c2ccccc2)c2ccccc2)NC(=O)[C@H](C(c2ccccc2)c2ccccc2)NC(=O)[C@H](CCCNC(=N)N)NC(=O)[C@H](CCCNC(=N)N)NC(=O)[C@H](C(c2ccccc2)c2ccccc2)NC1=O (stereo in doubt; 17C)
Erythrocyte
  HC50: 145 µg/mL
Staphylococcus aureus [1]; 24 h
  MIC: 12.5 µg/mL (≈ 9.66 µM)
Pseudomonas aeruginosa
  MIC: >100 µg/mL

## N=C(N)NCCC[C@@H]1NC(=O)[C@H](CCCNC(=N)N)NC(=O)[C@H](Cc2ccc3ccccc3c2)NC(=O)[C@H](Cc2ccc3ccccc3c2)NC(=O)[C@H](CCCNC(=N)N)NC(=O)[C@H](CCCNC(=N)N)NC(=O)[C@H](Cc2ccc3ccccc3c2)NC1=O (stereo in doubt; 19C)
Erythrocyte
  HC50: 110 µg/mL
Escherichia coli [2]
  MIC: 50 µg/mL (≈ 41.1 µM)
Staphylococcus aureus [1]
  MIC: 6.2 µg/mL (≈ 5.1 µM)
Staphylococcus aureus [3]
  MIC: 6.2 µg/mL (≈ 5.1 µM)
Pseudomonas aeruginosa
  MIC: 50 µg/mL (≈ 41.1 µM)

## CCCCCCCCCC(=O)N[C@@H](Cc1c[nH]c2ccccc12)C(=O)N[C@H](CC(N)=O)C(=O)N[C@@H](CC(=O)O)C(=O)N[C@@H]1C(=O)NCC(=O)N[C@@H](CCCN)C(=O)N[C@@H](CC(=O)O)C(=O)N[C@H](C)C(=O)N[C@@H](CC(=O)O)C(=O)NCC(=O)N[C@H](CO)C(=O)N[C@@H]([C@H](C)CC(=O)O)C(=O)N[C@@H](CC(=O)c2ccccc2N)C(=O)O[C@@H]1C
Staphylococcus aureus [4]
  Activity: Active
Streptococcus pneumoniae [5]
  MIC: 12.5 µg/mL (≈ 7.71 µM)
Staphylococcus aureus [6]
  MIC: 3.1 µg/mL
Streptococcus pneumoniae [7]
  MIC: 12.5 µg/mL (≈ 7.71 µM)
Enterococcus faecalis [8]
  MIC: 12.5 µg/mL (≈ 7.71 µM)
Enterococcus faecium [9]
  MIC: 6.25 µg/mL (≈ 3.86 µM)
Escherichia coli [10]
  Activity: Tde
Staphylococcus aureus [11]
  Activity: Tde
Lipid bilayer [12]
  Activity: 27%
Staphylococcus aureus [13]
  MBC: 6.2 µg/mL (≈ 3.83 µM)
Enterococcus faecium [14]
  MIC: 1.5 µg/mL (≈ 0.926 µM)
Staphylococcus aureus [15]
  MIC: 1.5 µg/mL
Staphylococcus aureus [16]
  MIC: 1.5 µg/mL
Lipid bilayer [17]
  Activity: Dde
Staphylococcus aureus [1]; Staphylococcus aureus, ATCC BAA-1556, 24 h, read-out: MIC
  MIC: 1.5 µg/mL (≈ 0.926 µM)
Bacillus subtilis
  MIC: 0.7 µg/mL (≈ 0.432 µM)
Staphylococcus aureus [18]
  Activity: Active
Bacillus cereus
  MIC: 1.5 µg/mL (≈ 0.926 µM)
Staphylococcus aureus [3]; Staphylococcus aureus, ATCC 29213, read-out: MIC
  MIC: 0.7 µg/mL (≈ 0.432 µM)
Staphylococcus aureus [19]
  MIC: 3.1 µg/mL
Staphylococcus aureus [20]
  Activity: Tde
Enterococcus faecalis [21]
  MIC: 6.25 µg/mL (≈ 3.86 µM)
Staphylococcus aureus [22]
  MIC: 3.1 µg/mL
Staphylococcus aureus [23]
  MIC: 0.7 µg/mL
Escherichia coli [24]
  Activity: Tde
Lipid bilayer [25]
  Activity: 5%

Reference: ChEMBL document CHEMBL5154681, “Small Amphiphilic Peptides: Activity Against a Broad Range of Drug-Resistant Bacteria and Structural Insight into Membranolytic Properties” (J Med Chem, 2022)
